Measurements: patent publication US7026305B2, “Anti-HIV agents with dual sites of action” (Meharry Medical College, priority 2003, dated 2006)
Read-outs that look alike come from different tables or passages of the source.

Columns and labels:
Assay type in all cases: cell-based
[1] = tested on: PI-R: A multiple HIV-1 protease inhibitor resistant strain; test: Anti-HIV activity against multiple protease inhibitor resistant HIV-1 strain (FIG. 1, FIG. 2)
Description: (§1) FIG. 1: Anti-HIV activity of N-[3-β-O-(3′,3′-dimethylsuccinyl)-lup-20(29)-en-28-oyl]-11-aminoundecanoic acid (LH 55-1). PI-R: A multiple HIV-1 protease inhibitor resistant strain. RT-R: A multiple HIV-1 reverse transcriptase inhibitor resistant strain. NL4-3: A T-cell line adapted HIV-1 strain. NL4-3/AZT: The effect of the 1st anti-HIV drug AZT on the NL4-3 virus.
(§2) (PI-R: A multiple HIV-1 protease inhibitor resistant strain. FH-R: DSB resistant HIV-1 strain. FH=DSB).
(§3) FIG. 1 graphically illustrates the anti-HIV activity of Compound 12 (also called compound LH 55-1). In FIG. 1, PI-R represents a multiple HIV-1 protease inhibitor resistant strain of HIV-1. RT-R represents a multiple HIV-1 reverse transcriptase inhibitor resistant strain of HIV-1; NL4-3 represents a T-cell line adapted HIV-1 strain; and NL4-3/AZT represents the effect of AZT on the NL4-3 virus.
(§4) FIG. 2 graphically illustrates that multiple protease inhibitor resistant strains of HIV-1 and DSB resistant HIV-1 are sensitive to Compound 12 (LH55-1). PI-R indicates a multiple HIV-1 protease inhibitor resistant strain of HIV-1, and FH-R indicates a DSB resistant HIV-1 strain (FH=DSB).

[2] = tested on: FH-R: DSB resistant HIV-1 strain; test: Anti-HIV activity against DSB resistant HIV-1 strain (FIG. 2)
Description: as §2, §4

[3] = tested on: HIV-1 envelope-mediated membrane fusion (COS cells expressing NL4-3 envelope glycoproteins and Hela cells expressing CD4 and CXCR4); test: Cell-cell fusion assay (HIV-1 entry, FIG. 3)
Method: FIG. 3. LH55-1 (compound 12) and compound 9 inhibit HIV-1 entry. Fusion between COS cells expressing NL4-3 envelope glycoproteins and Hela cells expressing CD4 and CXCR4 were performed in the presence of compound 9, 12 and T20 as indicated in the figure.
To determine the mechanisms of action, the ability of LH55-1 and compound 9 to inhibit HIV-1 entry were analyzed by using a cell-cell fusion assay. Inhibition of HIV-1 envelope-mediated membrane fusion will prevent HIV-1 from entering into the cells. […] T20 is a polypeptide fusion inhibitor recently approved for anti-HIV-1 therapy by FDA, USA.

[4] = tested on: RT-R: A multiple HIV-1 reverse transcriptase inhibitor resistant strain; test: Anti-HIV activity against multiple reverse transcriptase inhibitor resistant HIV-1 strain (FIG. 1)
Description: as §1, §3

[5] = tested on: HIV-1 maturation (processing of P25 into p24); test: Inhibition of viral maturation, Western blot of viral particles from ACH-2 cells (FIG. 4)
Description: FIG. 4. LH55-1 (compound 12) inhibits HIV-1 maturation. HIV-1 viral particles produced from ACH-2 cells in the absence (A) or presence (B) of LH55-1. The collected viral samples were lysed and analyzed by using a Western blot. The primary antibody used for the Western blot is a HIV-1 positive human serum. Mw: Molecular weight standards.
P24 is the capsid protein of HIV-1 and is essential for viral infectivity. P25 is the precursor of p24. Inhibition of the processing of P25 into p24 will result in an immature viral particle without infectivity. […] Further studies in our laboratory indicate that the amino acids at the C-terminus of P24 are critical determinant for the drug sensitivity. The anti-HIV-1 maturation activity of LH55-1 is different from that of HIV-1 protease inhibitors since maturation of other HIV-1 gag proteins such as P17 in not affected by LH55-1.

## C=C(C)C1CC[C@]2(C(=O)O)CC[C@]3(C)[C@H](CCC4[C@@]5(C)CCC(OC(=O)CC(C)(C)C(=O)O)C(C)(C)[C@@H]5CC[C@]43C)[C@@H]12 (stereo partly shown) [DSB, reference compound]
[1]
  anti-HIV activity / sensitivity of virus to compound: resistant
[2]
  sensitivity of virus to compound: resistant

## C=C(C)[C@@H]1CC[C@]2(C(=O)NC(CC(C)C)C(=O)O)CC[C@]3(C)[C@H](CCC4[C@@]5(C)CC[C@H](OC(=O)CC(C)(C)C(=O)O)C(C)(C)[C@@H]5CC[C@]43C)[C@@H]12 (stereo partly drawn) [compound 9, N-[3-β-O-(3′,3′-dimethylsuccinyl)-lup-20(29)-en-28-oyl]-L-leucine]
[3]
  anti-HIV-1 entry activity: exhibited anti-HIV-1 entry activity, albeit at higher concentrations than compound 12

## C=C(C)[C@@H]1CC[C@]2(C(=O)NCCCCCCCCCCC(=O)O)CC[C@]3(C)[C@H](CC[C@@H]4[C@@]5(C)CC[C@H](OC(=O)CC(C)(C)C(=O)O)C(C)(C)[C@@H]5CC[C@]43C)[C@@H]12 [compound 12, N-[3-β-O-(3′,3′-dimethylsuccinyl)-lup-20(29)-en-28-oyl]-11-aminoundecanoic acid]
[1]
  anti-HIV activity / sensitivity of virus to compound: substantial antiviral activity
[1]; listed as Compound 12
  anti-HIV activity / sensitivity of virus to compound: sensitive
[1]; listed as LH55-1
  anti-HIV activity / sensitivity of virus to compound: very sensitive
[4]
  anti-HIV activity: substantial antiviral activity
[2]
  sensitivity of virus to compound: sensitive
[2]; listed as LH55-1
  sensitivity of virus to compound: very sensitive
[3]
  anti-HIV-1 entry activity: potent HIV-1 entry inhibitor
  concentration blocking HIV-1 envelope-mediated membrane fusion: sub-micromolar
[5]
  maturation of other HIV-1 gag proteins such as P17: not affected
[5]; viral particles from ACH-2 cells
  processing of P25 into p24 (virion maturation): accumulation of P25
